Results reported in US9474790B2, “Stable, protracted GLP-1/glucagon receptor co-agonists for medical use” (Novo Nordisk A/S, priority 2013, dated 2016).
Numbered stars: 1 amine (or outer) side, 2 acyl side, 3 side chain; on linkers, the order of the positions; unused ones are H or OH. Square brackets hold non-standard residues; d marks the D form. Side chains are listed from the residue outwards. Peptide text beside a SMILES is read from it. * marks the point of attachment. C18 diacid = O=C(O)CCCCCCCCCCCCCCCCC(=O)*; γGlu = O=C(O)[C@H](CCC(=O)[*:2])N[*:1]; Ac4c = NC1(C(=O)O)CCC1

Biological target: T1, human glucagon receptor (Homo sapiens, UniProt P47871)
T1 construct: expressed in transfected cells; host or cells: BHK cells (parent BHK570, CRE luciferase clone BHK/KZ10-20-48), clone pLJ6'-4-25
Test: Glucagon receptor binding, 125I-glucagon displacement SPA on isolated membranes
Settings: displacement of 125I-glucagon from membranes; read-out: IC50 GlucR
Method in brief: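 Membranes from BHK cells stably expressing human glucagon receptor incubated 2 h at 25 °C with [125I]-glucagon (25 μl of 480 pM solution) and serial compound dilutions in WGA SPA format, pH 7.4 buffer with 0.1% ovalbumin. Albumin at max 0.001% or 0.2% final. IC50 from non-linear regression.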

T1 sequence (P47871 26-477): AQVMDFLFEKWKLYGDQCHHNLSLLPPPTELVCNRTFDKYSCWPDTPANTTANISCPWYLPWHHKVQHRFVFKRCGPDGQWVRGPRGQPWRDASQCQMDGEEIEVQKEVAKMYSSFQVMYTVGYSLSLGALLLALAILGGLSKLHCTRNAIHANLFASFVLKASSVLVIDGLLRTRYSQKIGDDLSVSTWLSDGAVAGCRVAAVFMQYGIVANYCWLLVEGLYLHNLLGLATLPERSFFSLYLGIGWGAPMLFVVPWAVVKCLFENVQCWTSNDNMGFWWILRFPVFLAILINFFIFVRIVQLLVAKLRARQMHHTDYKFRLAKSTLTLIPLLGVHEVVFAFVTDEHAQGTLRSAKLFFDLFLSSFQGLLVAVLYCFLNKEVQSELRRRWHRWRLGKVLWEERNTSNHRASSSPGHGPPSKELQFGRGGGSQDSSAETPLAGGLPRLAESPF

With `CC(C)C[C@H](NC(=O)[C@H](Cc1ccc(O)cc1)NC(=O)[C@H](CCCCN)NC(=O)[C@H](CO)NC(=O)[C@H](CC(C)C)NC(=O)[C@H](CC(=O)O)NC(=O)[C@H](CO)NC(=O)[C@@H](NC(=O)[C@H](Cc1ccccc1)NC(=O)[C@@H](NC(=O)CNC(=O)[C@H](CCC(N)=O)NC(=O)C1(NC(=O)[C@@H](N)Cc2c[nH]cn2)CCC1)[C@@H](C)O)[C@@H](C)O)C(=O)N[C@@H](CCC(=O)O)C(=O)N[C@@H](CO)C(=O)N[C@@H](CCCCN)C(=O)N[C@@H](CCCNC(=N)N)C(=O)N[C@@H](C)C(=O)N[C@@H](CCCNC(=N)N)C(=O)N[C@@H](CCC(=O)O)C(=O)N[C@@H](Cc1ccccc1)C(=O)N[C@H](C(=O)N[C@@H](CCC(N)=O)C(=O)N[C@@H](Cc1c[nH]c2ccccc12)C(=O)N[C@@H](CC(C)C)C(=O)N[C@@H](CC(C)C)C(=O)N[C@@H](CCCCNC(=O)CC[C@H](NC(=O)CC[C@H](NC(=O)[C@H](CO)NC(=O)[C@H](CCC(=O)O)NC(=O)[C@H](CO)NC(=O)CC[C@H](NC(=O)CC[C@H](NC(=O)CCCCCCCCCCCCCCCCC(=O)O)C(=O)O)C(=O)O)C(=O)O)C(=O)O)C(=O)N[C@H](C(N)=O)[C@@H](C)O)C(C)C` [Example 68, N^ε28-[(4S)-4-carboxy-4-[[(4S)-4-carboxy-4-[[(2S)-2-[[(2S)-4-carboxy-2-[[(2S)-2-[[(4S)-4-carboxy-4-[[(4S)-4-carboxy-4-(17-carboxyheptadecanoylamino)butanoyl]amino]butanoyl]amino]-3-hydroxypropanoyl]amino]butanoyl]amino]-3-hydroxypropanoyl]amino]butanoyl]amino]butanoyl]-[Acb2,Leu10,Glu15,Lys17,Arg20,Glu21,Leu27,Lys28]-Glucagon amide] (H-H[Ac4c]QGTFTSDLSKYLESKRAREFVQWLLK([γGlu-γGlu-Ser-Glu-Ser-γGlu-γGlu-C18 diacid])T-NH2; N-terminus assumed) the IC50 was 0.6 nM.
